Measurements published in US20260184712A1, “Heterocyclic Compounds as ENT Inhibitors and Compounds for Use in the Treatment of Cancers” (iTeos Belgium SA, priority 2022, published 2026).

How the values were obtained:
[1] = biological target: T1, human ENT1 (Homo sapiens, UniProt Q99808); assay: ENT1 binding assay (competition with Sahenta-DY647 on JAR cells); details: competition with SAHENTA-DY647 binding; IC50 categorized; read-out: Binding Assay IC50
T1 construct: JAR cells expressing ENT1 were purchased from ATCC; host or cells: JAR cells
T1 sequence (Q99808 1-456): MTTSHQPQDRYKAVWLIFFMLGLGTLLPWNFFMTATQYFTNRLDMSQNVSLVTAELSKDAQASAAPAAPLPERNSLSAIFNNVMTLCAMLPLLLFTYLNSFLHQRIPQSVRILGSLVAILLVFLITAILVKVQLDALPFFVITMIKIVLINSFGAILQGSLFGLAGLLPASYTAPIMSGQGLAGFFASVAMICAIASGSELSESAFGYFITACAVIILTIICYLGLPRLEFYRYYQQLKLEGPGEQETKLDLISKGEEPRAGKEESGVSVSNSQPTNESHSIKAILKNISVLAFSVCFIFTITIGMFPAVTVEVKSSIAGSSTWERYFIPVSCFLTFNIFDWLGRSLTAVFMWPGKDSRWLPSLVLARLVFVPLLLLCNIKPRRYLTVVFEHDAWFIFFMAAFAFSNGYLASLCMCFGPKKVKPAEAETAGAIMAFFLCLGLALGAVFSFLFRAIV
In short: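 Fluorescent-tracer displacement: compound incubated with JAR cells 30 min, 4 °C, before Sahenta-DY647 (100 nM) for another 30 min, 4 °C, in Hepes-buffered HBSS with 0.1% BSA. Bound tracer read at 670 nm after washes; IC50 from four-parameter fit, reported as mean of pIC50 values.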

[2] = system: stimulated primary human T cells; assay: T cell proliferation assay, Condition B (X-VIVO15, 2% HSA and 0.1% AAG); type: cell-based; details: Homo sapiens, T-cell, 96 h; Condition B: X-VIVO15 medium containing HSA and α1-Acid Glycoprotein; anti-CD3/anti-CD28 beads, ATP, 4 days; CFSE-lo T cells
Experimental: (§1) The goal of this study was to determine the potency of ENT1 inhibitors by measuring the rescued proliferation of stimulated primary human T cells incubated in the presence of 100 uM Adenosine triphosphate (ATP), in baseline conditions (condition A) or in the presence of various proteins known to bind small molecules (condition B).
Condition B: X-VIVO15, 2% Human Serum Albumin (HSA) and 0.1% α-1-Acid Glycoprotein (AAG)
(§2) Venous blood from healthy volunteers, all of whom signed an informed consent approved by the Ethics Committee (FOR—UIC—BV-050-01-01 ICF_HBS_HD Version 5.0), was obtained by ImmuneHealth (Centre Hospitalier Universitaire Tivoli, La Louviere, Belgium). Mononuclear cells were collected by density gradient centrifugation, using SepMate-50 tubes (StemCell Technologies, Grenoble, France) and Lymphoprep (Stemcell Technologies) according to the manufacturer's instructions. CD3+ T cells were isolated by immunomagnetic negative selection, using the EasySep Human T Cell Isolation Kit (StemCell Technologies) as per the manufacturer's instructions. CD3+ T cells were stored in heat inactivated FBS (hiFBS; Gibco, ThermoFisher Scientific, Merelbeke, Belgium) and 10% DMSO in liquid nitrogen.
(§3) Purified human CD3+ T cells were thawed and washed once with RPMI1640 medium, UltraGlutamine (Lonza, Verviers, Belgium) containing 10% hiFBS. Cells were resuspended in PBS containing 10% hiFBS at 1×10^7 cells/ml. One volume of cells was combined with a matching volume of 2 μM CFSE solution in PBS, mixed well by pipetting, and incubated at room temperature for 5 minutes under rotation and protected from light. Excess CFSE was quenched by addition of PBS containing 10% hiFBS, and the cells were centrifuged (300×rcf, 7 minutes) and resuspended in X-VIVO15. Cells were again centrifuged and resuspended in X-VIVO15 for counting.
(§4) Cells were resuspended at 1.6×10^6 cells/mL in X-VIVO15 medium (Condition A) or X-VIVO15 medium containing 4% (v/v) HSA (Sigma-Aldrich, Diegem, Belgium) and 0.2% (v/v) ai-Acid Glycoprotein (Sigma-Aldrich, Diegem, Belgium) (Condition B).
(§5) […] of cell suspension (2×10^4 cells) was added to wells of sterile flat-bottom 384-well plates. Cells were activated by adding […] of anti-CD3 anti-CD28 coated microbeads (Dynabeads human T-activator CD3/CD28; Life Technologies, Paisley, UK) suspended in X-VIVO15 medium or X-VIVO15 medium containing 4% (v/v) HSA and 0.2% (v/v) ai-Acid Glycoprotein at a ratio of one microbead per two cells. Serial dilutions of the ENT1 inhibitors were conducted in X-VIVO15 medium and […] of the diluent was added to the wells. Cells were mixed by pipetting up and down and pre-incubated for 30 minutes in a 37° C. humidified tissue culture incubator with 5% CO2. After pre-incubation, cells were cultured in the presence or absence of ATP (Sigma-Aldrich) at a final concentration of […]. The final well volume was 50 μl in all cases. Experiments were performed in biological duplicates. Cells were mixed by pipetting up and down and incubated for 4 days in a 37° C. humidified tissue culture incubator with 5% CO2.
(§6) Samples were run on a BD LSR Fortessa FACS machine (BD FACSDiva Software v9.0.1). Data were analyzed using FlowJo (BD, v10.7.1). T cell proliferation was determined by measuring the frequency of ‘CFSE^lo’ (i.e. CFSE-diluted).
(§7) T cell proliferation data were analyzed using FlowJo software (Version 10.6.2). Dead cells and cellular debris were excluded on the basis of forward and side scatter profile and singlet cells were selected for further analysis.
(§8) T cell proliferation was determined based on the percent CFSE^lo total T cells for each condition. The data were plotted on the y-axis against log molar (M) concentration of ENT1 inhibitors on the x-axis in GraphPad Prism (version 9.0.0). IC50 and IC90 values were generated with the ‘log(agonist) vs. response—Find ECanything(F))’ function with F constrained to 50 or 90, respectively. pICF values were generated by taking the −logECF values.

[3] = system: stimulated primary human T cells; assay: T cell proliferation assay, Condition A (X-VIVO15); type: cell-based; details: Homo sapiens, T-cell, 96 h; Condition A: X-VIVO15 medium; anti-CD3/anti-CD28 beads, ATP, 4 days; CFSE-lo T cells
Experimental: as §1, §2, §3, §4, §5, §6, §7, §8

Row | SMILES | IC50 [1] [nM] | IC50 [2] [nM] | IC50 [3] [nM]
1 | C[C@H]1O[C@@H](n2c(NC3CC(F)(F)C3)nc3c(OCc4ccc([N+](=O)[O-])cc4)ncnc32)[C@H](O)[C@@H]1O [Compound 47] | 1 to 20 | 20 to 500 | < 1
2 | COCCCNc1nc2c(OCc3ccc(OC(F)F)cc3)ncnc2n1[C@@H]1O[C@H](C)[C@@H](O)[C@H]1O [Compound 46] | 1 to 20 | 20 to 500 | –
3 | C[C@H]1O[C@@H](n2c(NC3CC(F)(F)C3)nc3c(OCc4ccc(C#N)cc4)ncnc32)[C@H](O)[C@@H]1O [Compound 49] | 1 to 20 | 20 to 500 | > 500
4 | COCCNc1nc2c(OCc3ccc([N+](=O)[O-])cc3)ncnc2n1[C@@H]1O[C@H](C)[C@@H](O)[C@H]1O [Compound 23] | 1 to 20 | 20 to 500 | < 1
5 | C[C@H]1O[C@@H](n2c(NC3CCS(=O)(=O)CC3)nc3c(OCc4ccc([N+](=O)[O-])cc4)ncnc32)[C@H](O)[C@@H]1O [Compound 31] | < 1 | 1 to 20 | < 1
6 | C[C@H]1O[C@@H](n2c(NCc3cnn(C)c3)nc3c(OCc4ccc(OC(F)F)cc4)ncnc32)[C@H](O)[C@@H]1O [Compound 66] | 1 to 20 | 20 to 500 | –
7 | C[C@H]1O[C@@H](n2c(NC3CCCC3)nc3c(OCc4ccc(C#N)nc4)ncnc32)[C@H](O)[C@@H]1O [Compound 74] | 1 to 20 | 20 to 500 | –
8 | C[C@H]1O[C@@H](n2c(N[C@@H]3CCOC3)nc3c(OCc4ccc(C#N)cc4)ncnc32)[C@H](O)[C@@H]1O [Compound 77] | 1 to 20 | 20 to 500 | < 1
9 | C[C@H]1O[C@@H](n2c(Nc3cnn(C)c3)nc3c(OCc4ccc(OC(F)F)cc4)ncnc32)[C@H](O)[C@@H]1O [Compound 64] | 1 to 20 | 20 to 500 | –
10 | CC(=O)N1CCC(Nc2nc3c(OCc4ccc(C#N)cc4)ncnc3n2[C@@H]2O[C@H](C)[C@@H](O)[C@H]2O)CC1 [Compound 80] | < 1 | 1 to 20 | –
11 | C[C@H]1O[C@@H](n2c(NCc3ccc(C#N)nc3)nc3c(OCc4ccc(C#N)cc4)ncnc32)[C@H](O)[C@@H]1O [Compound 70] | 1 to 20 | 20 to 500 | –
12 | C[C@H]1O[C@@H](n2c(NC3CCOCC3)nc3c(OCc4ccc(C#N)nc4)ncnc32)[C@H](O)[C@@H]1O [Compound 76] | 1 to 20 | 20 to 500 | –
13 | Cc1nc(CNc2nc3c(OCc4ccc(C#N)cc4)ncnc3n2[C@@H]2O[C@H](C)[C@@H](O)[C@H]2O)no1 [Compound 68] | 1 to 20 | 20 to 500 | –
14 | C[C@H]1O[C@@H](n2c(N[C@H]3CCOC3)nc3c(OCc4ccc(C#N)cc4)ncnc32)[C@H](O)[C@@H]1O [Compound 78] | 1 to 20 | 20 to 500 | –

Now from value to compound, other results behind:

Row | IC50 [1] [nM] | SMILES | IC50 [2] [nM] | IC50 [3] [nM]
15 | 1 to 20 | C[C@H]1O[C@@H](n2c(NCC3CCOCC3)nc3c(OCc4ccc(OC(F)F)cc4)ncnc32)[C@H](O)[C@@H]1O [Compound 113] | 20 to 500 | < 1
16 | 20 to 500 | C[C@H]1O[C@@H](n2cnc3c(OCc4ccc(OC(F)(F)F)cc4)ncnc32)[C@H](O)[C@@H]1O [Compound 180] | > 500 | 1 to 20
17 | 20 to 500 | C[C@H]1O[C@@H](n2cnc3c(OCc4ccc(C(F)F)cc4)ncnc32)[C@H](O)[C@@H]1O [Compound 182] | > 500 | 1 to 20
18 | 1 to 20 | C[C@H]1O[C@@H](n2c(NCC3CC(F)(F)C3)nc3c(OCc4ccc(OC(F)F)nc4)ncnc32)[C@H](O)[C@@H]1O [Compound 114] | 20 to 500 | < 1
19 | 1 to 20 | C[C@H]1O[C@@H](n2c(NCC3CCOC3)nc3c(OCc4ccc(OC(F)F)cc4)ncnc32)[C@H](O)[C@@H]1O (stereo partly shown) [Compound 112] | 20 to 500 | < 1
20 | 1 to 20 | C[C@H]1O[C@@H](n2c(NC3CCCC3)nc3c(N4CCc5ccc(C#N)cc5C4)ncnc32)[C@H](O)[C@@H]1O [Compound 153] | 20 to 500 | < 1
21 | 1 to 20 | CC(C)Nc1nc2c(N3CCc4ccc(C#N)cc4C3)ncnc2n1[C@@H]1O[C@H](C)[C@@H](O)[C@H]1O [Compound 154] | > 500 | 1 to 20
22 | 1 to 20 | C[C@H]1O[C@@H](n2c(NC3CCC(O)C3)nc3c(OCc4ccc(C(F)(F)F)cc4)ncnc32)[C@H](O)[C@@H]1O (stereo partly shown) [Compound 100] | 20 to 500 | –
23 | 1 to 20 | C[C@H]1O[C@@H](n2c(NCC3CCC(F)(F)C3)nc3c(OCc4ccc(OC(F)F)nc4)ncnc32)[C@H](O)[C@@H]1O (stereo partly shown) [Compound 115] | > 500 | –
24 | 1 to 20 | C[C@H]1O[C@@H](n2c(NCC3CCC(F)(F)CC3)nc3c(OCc4ccc(OC(F)F)nc4)ncnc32)[C@H](O)[C@@H]1O [Compound 116] | 20 to 500 | –
25 | 1 to 20 | C[C@H]1O[C@@H](n2c(NC3CCCC3)nc3c(OCc4ccc(OC(F)(F)F)nc4)ncnc32)[C@H](O)[C@@H]1O [Compound 87] | 20 to 500 | –
26 | < 1 | Cc1cc(COc2ncnc3c2nc(NC2CCOCC2)n3[C@@H]2O[C@H](C)[C@@H](O)[C@H]2O)ccc1[N+](=O)[O-] [Compound 103] | 20 to 500 | –
27 | 1 to 20 | C[C@H]1O[C@@H](n2c(N[C@H]3CC[C@](C)(O)CC3)nc3c(OCc4ccc(OC(F)F)cc4)ncnc32)[C@H](O)[C@@H]1O [Compound 121] | 20 to 500 | –
28 | > 500 | NC[C@H]1O[C@@H](n2cnc3c(SCc4ccc([N+](=O)[O-])cc4)ncnc32)[C@H](O)[C@@H]1O [Compound 287] | – | –
29 | 20 to 500 | C[C@H]1O[C@@H](n2cnc3c(OCc4cc(Cl)cc(Cl)c4)ncnc32)[C@H](O)[C@@H]1O [Compound 217] | – | –
30 | 1 to 20 | C[C@H]1O[C@@H](n2c(NC3CCCC3)nc3c(OCc4ccc(OC(F)(F)F)cc4)ncnc32)[C@H](O)[C@@H]1O [Compound 88] | – | –
31 | > 500 | C[C@H]1O[C@@H](n2cnc3c(SCc4ccccc4S(N)(=O)=O)ncnc32)[C@H](O)[C@@H]1O [Compound 242] | – | –
